pIC50: −log10 of the molar value. Calls of active or inactive are those of the source. The rule behind the calls is not given here.
Experiments:
A-375 [1] = experiment: Anticancer activity against human A-375 cells assessed as inhibition of cell growth by MTT assay; format: functional, cell-based
HCC827 [2] = experiment: Inhibition of colony formation in human HCC827 cells at 0.2 uM incubated for 72 hrs by crystal violet staining based analysis; format: functional, cell-based
HCT-116 = experiment: Antiproliferative activity against human HCT-116 cells assessed as inhibition of cell growth measured after 72 hrs by MTT assay; format: functional, cell-based; settings: HCT-116, 72 h
NCI-H1650 = experiment: Antiproliferative activity against human NCI-H1650 cells assessed as inhibition of cell growth measured after 72 hrs by MTT assay; format: functional, cell-based; settings: NCI-H1650, 72 h
[3] = Antiproliferative activity against human LO2 cells assessed as inhibition of cell growth measured after 72 hrs by MTT assay; format: toxicity, cell-based, L02
[4] = Drug accumulation in mitochondria of human HCC827 cells at 10 uM incubated for 10 mins in presence of CCCP by RP-HPLC-UV analysis; format: ADME; settings: hcc827, 10 min
A-375 [5] = experiment: Antiproliferative activity against human A-375 cells assessed as inhibition of cell growth measured after 72 hrs by MTT assay; format: functional, cell-based; settings: A-375, 72 h
NCI-H460 = experiment: Antiproliferative activity against human NCI-H460 cells assessed as inhibition of cell growth measured after 72 hrs by MTT assay; format: functional, cell-based; settings: NCI-H460, 72 h
[6] = Antiproliferative activity against human HUVEC cells assessed as inhibition of cell growth measured after 72 hrs by MTT assay; format: toxicity, cell-based
HCC827 [7] = experiment: Induction of ROS generation in human HCC827 cells assessed as increase in NAD+/NADH ratio at 1 uM incubated for 4 hrs by absorbance based analysis; format: functional, cell-based
HCC827 [8] = experiment: Antiproliferative activity against human HCC827 cells assessed as inhibition of cell growth measured after 72 hrs by MTT assay; format: functional, cell-based; settings: HCC827, 72 h
HCC827 [9] = experiment: Induction of apoptosis in human HCC827 cells assessed as late apoptotic cells at 1 uM measured after 48 hrs by annexin V and PI staining based flow cytometry analysis (reference value: 1.29%); format: functional
HCC827 [10] = experiment: Induction of cell cycle arrest in human HCC827 cells assessed as accumulation of cells at S phase at 0.4 uM incubated for 24 hrs by PI staining based flow cytometry analysis (reference value: 26.41%); format: functional
[11] = Drug accumulation in mitochondria of human HCC827 cells at 10 uM incubated for 5 mins; format: ADME; settings: hcc827, 5 min
HCC827 [12] = experiment: Induction of cell cycle arrest in human HCC827 cells assessed as accumulation of cells at G2 phase at 0.4 uM incubated for 24 hrs by PI staining based flow cytometry analysis (reference value: 7.15%); format: functional
[13] = Antiproliferative activity against human Osimertinib-resistant HCC827 cell assessed as inhibition of cell growth measured after 72 hrs by MTT assay; format: functional, cell-based
[14] = system: Osimertinib-resistant NCI-H1975 cell; experiment: Antiproliferative activity against human Osimertinib-resistant NCI-H1975 cell assessed as inhibition of cell growth measured after 72 hrs by MTT assay; format: functional, cell-based
MCF7 = experiment: Antiproliferative activity against human MCF7 cells assessed as inhibition of cell growth measured after 72 hrs by MTT assay; format: functional, cell-based; settings: MCF7, 72 h
[15] = Antiproliferative activity against HEK293T cells assessed as inhibition of cell growth measured after 72 hrs by MTT assay; format: toxicity, cell-based, HEK-293T; settings: human
HCC827 [16] = experiment: Induction of apoptosis in human HCC827 cells assessed as viable cells at 1.0 uM measured after 48 hrs by annexin V and PI staining based flow cytometry analysis (reference value: 96.74%); format: functional; settings: read-out: Activity
SK-LU-1 = experiment: Antiproliferative activity against human SK-LU-1 cells assessed as inhibition of cell growth measured after 72 hrs by MTT assay; format: functional, cell-based; settings: SK-LU-1, 72 h
[17] = Antiproliferative activity against human BEAS-2B cells assessed as inhibition of cell growth measured after 72 hrs by MTT assay; format: toxicity, cell-based
Mitochondrial membrane = experiment: Induction of mitochondrial membrane depolarization in human HCC827 cells assessed as increase in J-monomer ratio at 0.5 uM incubated for 4 hrs by JC-1 staining based flow cytometric analysis; format: cell membranes
MDA-MB-231 = experiment: Antiproliferative activity against human MDA-MB-231 cells assessed as inhibition of cell growth measured after 72 hrs by MTT assay; format: functional, cell-based; settings: MDA-MB-231, 72 h
HCC827 [18] = experiment: Induction of apoptosis in human HCC827 cells assessed as early apoptotic cells at 1 uM measured after 48 hrs by annexin V and PI staining based flow cytometry analysis (reference value: 0.70%); format: functional
HCC827 [19] = experiment: Induction of mitochondrial dysfunction in human HCC827 cells assessed as cytochrome C release in cytoplasm at 1 uM measured after 72 hrs by laser scanning confocal fluorescence microscopic analysis; format: functional, cell-based
HCC827 [20] = experiment: Induction of ROS generation in human HCC827 cells assessed as decrease in NADH content at 1 uM incubated for 4 hrs by absorbance based analysis; format: functional, cell-based
A549 = experiment: Antiproliferative activity against human A549 cells assessed as inhibition of cell growth measured after 72 hrs by MTT assay; format: functional, cell-based; settings: A549, 72 h
NCI-H1299 = experiment: Antiproliferative activity against human NCI-H1299 cells assessed as inhibition of cell growth measured after 72 hrs by MTT assay; format: functional, cell-based; settings: NCI-H1299, 72 h
HCC827 [21] = experiment: Induction of cell cycle arrest in human HCC827 cells assessed as accumulation of cells at G1 phase at 0.4 uM incubated for 24 hrs by PI staining based flow cytometry analysis (reference value: 66.44%); format: functional
NCI-H1975 = experiment: Antiproliferative activity against human NCI-H1975 cells assessed as inhibition of cell growth measured after 72 hrs by MTT assay; format: functional, cell-based; settings: NCI-H1975, 72 h
HCC827 [22] = experiment: Induction of apoptosis in human HCC827 cells assessed as necrotic cells at 1 uM measured after 48 hrs by annexin V and PI staining based flow cytometry analysis (reference value: 1.18%); format: functional
[23] = Drug localization in mitochondria of human HCC827 cells assessed as increase in green fluorescence by measuring pearson correlation coefficient at 10 uM incubated for 10 mins by mito-tracker green dye based confocal scanning microscopy analysis; format: ADME; settings: hcc827, 10 min
[24] = Drug uptake in human HCC827 cells mitochondria assessed as increase in fluorescence intensity at 10 uM by fluorescence emission spectroscopy analysis; format: ADME; settings: hcc827, 10 µM
[25] = Drug metabolism in human HCC827 cells mitochondria assessed as 2-(2-(4-hydroxystyryl)-4H-chromen-4-ylidene)malononitrile hydrolysis at 10 uM incubated for 5 mins by fluorescence emission spectroscopy analysis; format: ADME; settings: hcc827, 5 min

| Structure (SMILES) | pIC50 (A-375 [1]) | inhibition (HCC827 [2]) | pIC50 (HCT-116) | pIC50 (NCI-H1650) | IC50 at 72 h [3] [µM] | Drug uptake [4] | pIC50 (A-375 [5]) | pIC50 (NCI-H460) | IC50 at 72 h [6] [µM] | Activity (HCC827 [7]) | pIC50 (HCC827 [8]) | Activity (HCC827 [9]) [%] | Activity (HCC827 [10]) [%] | Drug uptake [11] | Activity (HCC827 [12]) [%] | pIC50 [13] | pIC50 [14] | pIC50 (MCF7) | IC50 at 72 h [15] [µM] | viability at 1 µM (HCC827 [16]) [%] | other results |
| --- | --- | --- | --- | --- | --- | --- | --- | --- | --- | --- | --- | --- | --- | --- | --- | --- | --- | --- | --- | --- | --- |
| OCCCCC[P+](c1ccccc1)(c1ccccc1)c1ccccc1 | < 4.40 |  |  |  |  |  |  |  |  |  |  |  |  |  |  |  |  |  |  |  |  |
| O=C(CCCCC(CCSCc1ccccc1)SCc1ccccc1)OCCCCC[P+](c1ccccc1)(c1ccccc1)c1ccccc1 (stereo unspecified) | 5.38 |  |  |  |  |  |  |  |  |  |  |  |  |  |  |  |  |  |  |  |  |
| OCCCCCCCCCC[P+](c1ccc(C(F)(F)F)cc1)(c1ccc(C(F)(F)F)cc1)c1ccc(C(F)(F)F)cc1.[Br-] |  | Weak_effect | 5.11 | 5.71 | > 40 | Not_active | 5.27 | 5.51 | > 40 | Active | < 5.30 | 2.72 | 26.29 | 52% | 4.38 | < 5.30 | 5.27 | 5.19 | 13.8 | 92.1 | pIC50 (SK-LU-1): < 5.30; IC50 at 72 h [17]: 6.9 µM; Activity (Mitochondrial membrane): inactive; pIC50 (MDA-MB-231): 5.20; Activity (HCC827 [18]): 1.3%; Activity (HCC827 [19]): inactive; Activity (HCC827 [20]): Active; pIC50 (A549): 5.21; pIC50 (NCI-H1299): < 5.00; Activity (HCC827 [21]): 69.33%; pIC50 (NCI-H1975): < 5.30; Activity (HCC827 [22]): 2.87% |
| OCCCCCCCCCC[P+](c1ccccc1)(c1ccccc1)c1ccccc1.[Br-] | 6.39 | Weak_effect | 6.03 | 6.15 | 3.12 | Not_active | 6.39 | 6.02 | 2.38 | Active | 6.64 | 4.02 | 19.19 | ~ 90% | 6 | 6.47 | 6.24 | 6.51 | 2.79 | 94.1 | pIC50 (SK-LU-1): 6.27; IC50 at 72 h [17]: 1.14 µM; Activity (Mitochondrial membrane): inactive; pIC50 (MDA-MB-231): 6.26; Activity (HCC827 [18]): 2.5%; Activity (HCC827 [19]): inactive; Activity (HCC827 [20]): Active; pIC50 (A549): 5.97; pIC50 (NCI-H1299): < 5.30; Activity (HCC827 [21]): 74.82%; pIC50 (NCI-H1975): 6.49; Activity (HCC827 [22]): 0.7% |
| Cc1ccc([P+](CCCCCCCCCCOC(=O)Oc2ccc(/C=C/C3=CC(=C(C#N)C#N)c4ccccc4O3)cc2)(c2ccc(C)cc2)c2ccc(C)cc2)cc1.[Br-] |  |  |  |  |  |  |  |  |  |  |  |  |  |  |  |  |  |  |  |  | Drug uptake [23]: 0.84; Drug uptake [24]: Active; Drug metabolism [25]: metabolite_detected |
| N#CC(C#N)=C1C=C(/C=C/c2ccc(OC(=O)OCCCCCCCCCC[P+](c3ccccc3)(c3ccccc3)c3ccccc3)cc2)Oc2ccccc21.[Br-] |  |  |  |  |  |  |  |  |  |  |  |  |  |  |  |  |  |  |  |  | Drug uptake [23]: 0.9; Drug uptake [24]: Active; Drug metabolism [25]: metabolite_detected |
